{"source": "patent US20100099917A1", "about": "“Integrin modulators and methods for their use” (Billings Pharmaceuticals, Inc., priority 2004, published 2010)", "key": {"[1]": {"system": "adhesion-dependent processes", "conditions": "mixtures of E- and Z-isomers; cited from earlier work"}, "[2]": {"molecular_target": "platelet integrin, GP IIb/IIIa (Homo sapiens, UniProt P05106+P08514)", "sequence (P08514 32-887 limits assumed)": "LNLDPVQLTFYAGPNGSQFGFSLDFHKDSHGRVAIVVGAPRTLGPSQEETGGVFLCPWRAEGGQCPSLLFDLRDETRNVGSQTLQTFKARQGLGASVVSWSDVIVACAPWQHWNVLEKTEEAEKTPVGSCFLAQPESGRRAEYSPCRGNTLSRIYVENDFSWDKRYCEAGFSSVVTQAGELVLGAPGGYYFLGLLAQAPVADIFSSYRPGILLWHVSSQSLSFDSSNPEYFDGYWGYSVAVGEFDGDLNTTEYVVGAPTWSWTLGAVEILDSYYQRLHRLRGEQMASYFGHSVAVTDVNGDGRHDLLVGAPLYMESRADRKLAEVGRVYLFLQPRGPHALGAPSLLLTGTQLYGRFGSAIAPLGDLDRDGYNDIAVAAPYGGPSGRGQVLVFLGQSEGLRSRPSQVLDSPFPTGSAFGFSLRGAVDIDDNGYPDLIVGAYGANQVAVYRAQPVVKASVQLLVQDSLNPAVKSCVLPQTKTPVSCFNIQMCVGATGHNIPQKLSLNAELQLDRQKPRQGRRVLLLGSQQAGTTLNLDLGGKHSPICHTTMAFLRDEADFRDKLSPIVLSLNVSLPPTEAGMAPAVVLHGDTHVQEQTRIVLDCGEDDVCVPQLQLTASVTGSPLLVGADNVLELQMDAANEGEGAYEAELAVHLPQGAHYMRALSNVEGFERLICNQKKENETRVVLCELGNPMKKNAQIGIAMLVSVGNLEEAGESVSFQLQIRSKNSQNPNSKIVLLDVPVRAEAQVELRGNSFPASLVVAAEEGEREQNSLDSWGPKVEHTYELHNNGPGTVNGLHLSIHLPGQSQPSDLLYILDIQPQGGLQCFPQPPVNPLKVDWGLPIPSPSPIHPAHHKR", "sequence (P08514 891-1039 limits assumed)": "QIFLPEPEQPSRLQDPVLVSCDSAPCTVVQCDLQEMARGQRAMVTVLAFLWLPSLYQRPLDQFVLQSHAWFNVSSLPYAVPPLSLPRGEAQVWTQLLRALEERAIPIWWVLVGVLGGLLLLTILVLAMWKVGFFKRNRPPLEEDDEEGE", "sequence (P05106 27-788)": "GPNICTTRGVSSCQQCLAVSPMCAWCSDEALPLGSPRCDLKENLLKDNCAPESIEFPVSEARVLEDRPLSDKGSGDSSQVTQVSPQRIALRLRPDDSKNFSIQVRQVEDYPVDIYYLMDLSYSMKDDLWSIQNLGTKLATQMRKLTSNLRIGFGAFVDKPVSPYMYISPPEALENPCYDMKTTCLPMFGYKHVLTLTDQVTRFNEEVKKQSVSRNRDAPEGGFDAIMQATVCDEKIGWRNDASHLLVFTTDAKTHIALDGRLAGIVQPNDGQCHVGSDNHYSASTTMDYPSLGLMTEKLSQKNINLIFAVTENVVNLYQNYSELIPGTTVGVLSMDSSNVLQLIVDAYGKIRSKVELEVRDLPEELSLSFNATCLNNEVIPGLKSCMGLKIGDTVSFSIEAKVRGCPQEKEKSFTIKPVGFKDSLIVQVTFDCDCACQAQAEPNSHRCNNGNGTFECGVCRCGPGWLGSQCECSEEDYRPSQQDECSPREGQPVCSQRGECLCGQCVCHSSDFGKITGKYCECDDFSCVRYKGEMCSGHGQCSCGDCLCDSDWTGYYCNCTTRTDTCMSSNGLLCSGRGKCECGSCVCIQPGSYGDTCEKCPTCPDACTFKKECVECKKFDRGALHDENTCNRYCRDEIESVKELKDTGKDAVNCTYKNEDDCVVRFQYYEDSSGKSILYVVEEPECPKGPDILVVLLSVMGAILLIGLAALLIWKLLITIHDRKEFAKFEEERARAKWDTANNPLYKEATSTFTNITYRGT", "conditions": "allosteric inactivation of GP IIb/IIIa; cited from earlier work"}, "[3]": {"system": "HIV-1RF-infected H9 cells", "assay": "Inhibition of HIV-induced syncytium formation (uninfected H9 cells with HIV-1RF-infected H9 cells)", "type": "cell-based", "conditions": "for IC100 of syncytium formation: H9 + HIV-1RF-infected H9 cells, 6 to 15 hours at 37° C.", "description": "The purified enantiomers were taken up in DMSO at a concentration of 10 mg/mL. Dilutions were made in RPMI 1640 medium containing 10% fetal calf serum and 10 mM HEPES (cRPMI). H9 cells (ATCC, Rockville, Md.) infected with HIV-1RF (NIH AIDS Repository, Rockville, Md.) and uninfected H9 cells were washed with cRPMI and resuspended in cRPMI at a density of 4×10^6 per mL. Uninfected cells (50 μL) were mixed with serial dilutions of the compounds (100 μL) and incubated at 37° C. for 30 min before adding and mixing 50 μL of infected H9 cells. The plates were incubated at 37° C. for 6 to 15 hours before scoring syncytium formation.\nFor all the curves, the effect of ajoene enantiomers and enantiomer mixtures on the fusion of cultured, intact H9 cells with HIV-1RF-infected H9 cells is disclosed. The vertical graph axis expresses the maximum amount of syncytia formed in the absence of the compounds (100 percent), while the points on the curves represent percentages of such an amount of syncytia formed in the presence of varying concentrations of the compounds and compound mixtures (micromoles per liter)."}, "[4]": {"system": "U937 cells infected with HIV-1 RT", "assay": "Inhibition of syncytium formation (MT2 cells with HIV-1 RT-infected U937 cells)", "type": "cell-based", "conditions": "MT2 + HIV-1 RT-infected U937 cells, 13 hours"}, "VLA-4": {"molecular_target": "T1, VLA-4 (Homo sapiens, UniProt P05556+P13612)", "T1 construct": "VLA-4-mediated adhesion of enzyme-labeled PM1 cells to VCAM-1-coated artificial substrata; host or cells: PM1 (printed 'PMI') cells", "T1 sequence (P13612 34-1032)": "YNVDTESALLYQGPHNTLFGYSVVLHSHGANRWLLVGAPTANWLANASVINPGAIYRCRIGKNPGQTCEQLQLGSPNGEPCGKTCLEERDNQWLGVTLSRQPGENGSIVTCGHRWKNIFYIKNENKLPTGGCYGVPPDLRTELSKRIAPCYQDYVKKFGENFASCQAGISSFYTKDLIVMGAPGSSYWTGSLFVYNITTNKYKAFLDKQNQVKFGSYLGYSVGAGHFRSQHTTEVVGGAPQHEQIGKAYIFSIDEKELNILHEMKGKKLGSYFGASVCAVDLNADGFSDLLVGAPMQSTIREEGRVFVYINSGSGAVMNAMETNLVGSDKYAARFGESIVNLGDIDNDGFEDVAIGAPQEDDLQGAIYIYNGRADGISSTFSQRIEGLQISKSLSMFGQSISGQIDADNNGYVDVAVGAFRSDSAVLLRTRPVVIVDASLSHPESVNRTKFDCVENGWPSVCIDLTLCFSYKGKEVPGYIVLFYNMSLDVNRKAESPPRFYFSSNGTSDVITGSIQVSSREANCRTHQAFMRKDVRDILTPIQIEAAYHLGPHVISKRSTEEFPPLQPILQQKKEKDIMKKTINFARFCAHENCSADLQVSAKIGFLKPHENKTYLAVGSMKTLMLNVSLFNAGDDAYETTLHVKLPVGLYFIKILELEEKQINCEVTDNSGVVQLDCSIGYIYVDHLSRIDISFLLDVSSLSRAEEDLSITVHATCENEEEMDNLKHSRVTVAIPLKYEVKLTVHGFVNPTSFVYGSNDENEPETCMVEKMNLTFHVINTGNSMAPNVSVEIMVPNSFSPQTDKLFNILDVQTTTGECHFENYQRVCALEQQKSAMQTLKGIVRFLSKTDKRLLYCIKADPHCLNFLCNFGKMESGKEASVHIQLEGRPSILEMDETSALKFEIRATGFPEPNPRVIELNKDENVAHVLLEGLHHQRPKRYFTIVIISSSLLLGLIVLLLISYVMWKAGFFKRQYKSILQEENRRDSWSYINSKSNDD", "T1 sequence (P05556 21-798)": "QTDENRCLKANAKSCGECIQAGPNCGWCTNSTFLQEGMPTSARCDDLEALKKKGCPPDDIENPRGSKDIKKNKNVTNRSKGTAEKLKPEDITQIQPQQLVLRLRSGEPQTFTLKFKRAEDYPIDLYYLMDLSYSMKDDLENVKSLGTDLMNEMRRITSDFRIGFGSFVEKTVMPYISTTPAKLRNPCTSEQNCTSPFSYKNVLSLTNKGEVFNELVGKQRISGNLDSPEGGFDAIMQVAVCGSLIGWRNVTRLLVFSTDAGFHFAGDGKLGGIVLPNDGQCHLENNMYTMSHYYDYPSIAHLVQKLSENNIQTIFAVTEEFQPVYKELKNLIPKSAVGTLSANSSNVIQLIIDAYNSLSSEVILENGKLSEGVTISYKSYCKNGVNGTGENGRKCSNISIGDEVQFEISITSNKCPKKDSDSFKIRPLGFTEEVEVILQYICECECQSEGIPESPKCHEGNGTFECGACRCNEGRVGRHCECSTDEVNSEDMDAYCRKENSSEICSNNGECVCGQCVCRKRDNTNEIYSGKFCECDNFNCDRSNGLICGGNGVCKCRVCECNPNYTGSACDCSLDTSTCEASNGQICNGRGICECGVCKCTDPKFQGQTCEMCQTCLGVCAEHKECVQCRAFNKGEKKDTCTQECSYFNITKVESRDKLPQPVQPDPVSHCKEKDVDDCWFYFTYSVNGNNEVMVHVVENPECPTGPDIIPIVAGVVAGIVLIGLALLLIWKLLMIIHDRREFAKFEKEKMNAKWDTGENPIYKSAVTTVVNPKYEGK", "assay": "Inhibition of VLA-4-mediated adhesion of HRP-labeled PMI cells to VCAM-1-coated substrata", "type": "cell-based", "description": "In addition, the present invention provides methods whereby the integrin-modulating activity of DDCs may be assessed. One such method involves VLA-4-mediated adhesion of enzyme-labeled PM1 cells to VCAM-1-coated artificial substrata. Specifically, the cells are exposed to isolated DDC enantiomers (or the vehicle thereof) and allowed to adhere or not adhere to immobilized VCAM-1. Thereafter, the adherent cells are lysed and, following addition of the substrate of the enzyme and incubation, the activity of the enzyme is measured spectrophotometrically. The value of this parameter, characterizing the number of the adherent cells, is inversely proportional to integrin-modulating activity of the compound. Another such method is based on the inhibition of HIV-mediated syncytium formation, a phenomenon known to depend on integrin-mediated functions. Yet another method is based on the inhibition of cell-to-cell HIV transmission, a process also dependent on integrin-mediated functions. Modulating activity of integrin-mediated functions by the enantiomers was compared in a well-defined system of inhibition of VLA-4-mediated adhesion of enzyme-labeled PMI cells (NIH AIDS Repository, Rockville, Md.) to VCAM-1-coated artificial substrata. […] The reaction was stopped with 0.5 M H2SO4, and the optical density of the wells was read at 450 nm. […]"}}, "data": [{"smiles": "C=CCSS/C=C/C[S+]([O-])CC=C", "note": "(stereo not shown) [ajoene, 4,5,9-trithiadodeca-1,6,11-triene-9-oxide]", "values": [{"measurement": "inhibition of adhesion-dependent processes", "setting": "[1]", "result": "potent inhibitor"}, {"measurement": "effect on platelet aggregation", "setting": "[2]", "result": "inhibit platelet aggregation"}]}, {"smiles": "C=CCSS/C=C\\C[S+]([O-])CC=C", "note": "(stereo not drawn) [(Z)-(+) counterpart]", "values": [{"measurement": "IC100 of syncytium formation", "setting": "[3]", "result": 50, "unit": "micromoles per liter"}]}, {"smiles": "C=CCSS/C=C/C[S+]([O-])CC=C", "note": "(racemic) [racemic (E)-ajoene, reference compound]", "values": [{"measurement": "IC100 of syncytium formation", "setting": "[3]", "result": 50, "unit": "micromoles per liter"}]}, {"smiles": "C=CCSS/C=C\\C[S+]([O-])CC=C", "note": "(stereo not drawn) [(Z)-(−)-enantiomer, (Z)-(−)-4,5,9-trithiadodeca-1,6,11-triene-9-oxide]", "values": [{"measurement": "IC100 of syncytium formation", "setting": "[3]", "result": 12.5, "unit": "micromoles per liter"}, {"measurement": "activity as an integrin modulator relative to other enantiomers, racemic E-ajoene or the unseparated 3:1 mixture", "setting": "[3]; summary statement in the description, covers Examples 2 and 3", "result": "at least four times more active"}, {"measurement": "activity relative to (Z)-(+) counterpart, racemic (E)-ajoene or the unseparated 3:1 mixture", "setting": "[3]; syncytium formation, FIG. 1 curves", "result": "at least four times more active"}, {"measurement": "syncytium formation inhibition, result compared with the H9 system", "setting": "[4]", "result": "A similar result was obtained"}, {"measurement": "adhesion-inhibiting activity, fold higher than any other enantiomer of the original 3:1 mixture", "setting": "VLA-4; PMI cells on VCAM-1, optical density read at 450 nm", "result": 4, "unit": "fold"}, {"measurement": "activity compared with the parent racemates (E-, Z-ajoenes and mixtures)", "setting": "VLA-4; conclusion from Examples 2 and 3 taken together", "result": "significantly higher"}]}]}
